Assay results reported in patent US4231946A, “14,15-Methylene derivatives of the estrane series and methods for preparing same” (VEB Jenapharm, priority 1978, dated 1980).
Where two headings read alike, the source gives them in different places.

Assays:
infantile rabbit uteri = experiment: McPhail test, progestagenic and antiprogestagenic activities in infantile rabbit uteri; assay type: in vivo; settings: progesterone 4 mg/animal s.c. alone, total dose over 4 days; n=6
From the text: The HE of 97.3% is significant (Table 5).
Progestagenic and antiprogestagenic activities of STS 593
in infantile rabbit uteri as shown by the McPhail test

[1] = system: mice (uterine fresh weight); experiment: Uterine activity in mice (dose for doubling uterine fresh weight); assay type: in vivo, mouse; settings: for Total dose for doubling uterine fresh weight: p.o.; for Uterine response / uterine activity (in words): Table 6
From the text: (§1) Uterine and contraceptive activities produced by selected
(§2) 14,15-methylene-17-ol-estratrienes in mice

[2] = General statement on antifertility effects and separation from uterine, estrogenic and antigonadotrophic activities; assay type: in vivo
mice = experiment: Contraceptive activity in mice, single application on 1st day of gestation; assay type: in vivo, mouse; settings: for THE, % after single application of 10 mg/kg of body-wt. on the 1st day of gestation p.o.: mice, 10 mg/kg p.o.; for Contraceptive activities related to IHE1 (ranking in words): among the other compounds of Table 6
Protocol: (§3) Gestation and nidation inhibition expressed in % were used as parameters for antifertility effects. GHE1 (gestation inhibitory effect) and IHE1 (nidation inhibitory effect) were related to the inhibition of the total of gestations or nidations, GHE2 and IHE2 were related to the inhibition of normal gestations or nidations within each group. […] GHE1, GHE2, IHE1 and IHE2 were calculated using the following formulae: [formula] n=number of females inseminated in each group v=test group
(§4) f=average number (x) of all implantations (IHE1) and of normal implantations (IHE2) p. female inseminated within a group, respectively.
(§5) For GHE1 and GHE2 the ED (effective doses) for the HE (inhibitory effect) 0%, 50%, and 95% as far as possible were determined by means of the probit analysis. The ED50 for IHE1 and IHE2 were determined graphically.
as §1, §2

inseminated rats = experiment: Antinidation / Nidation Inhibition Test in inseminated rats treated on the 1st day of gestation; assay type: in vivo, rat; settings: for ED50 / ED5 / ED95: Rattus norvegicus, po, STS 593 from trial No. 2; for Female rats pregnant of n, normal / Female rats pregnant of n, total / GHE1 / GHE2 / IHE1 / IHE2 / Implantations per female (-x), normal / Implantations per female (-x), total: mestranol 0.2 mg/kg p.o.
From the text: The favorable biological properties of the named compounds of the process according to the invention are to be further illustrated and described in the example of 3-methoxy-14β-15β-methylene-estra-1,3,5(10)-triene-17β-ol (test designation STS 593).
as §3
k=control group (sesame oil)
x=number of all gestations (GHE1) and of normal gestations (GHE2) p. group, respectively
as §4
The comparison of the relative incidence of gestations was performed by the Ryan test, the comparison of the number of implantations by the Dunn test.
as §5

rats (testicular mass) = experiment: Antigonadotrophic activity (testicular mass) in rats; assay type: in vivo, rat; settings: Rattus norvegicus, 120 h; rats; read-out: Effective dose for the HE50, antigonadotrophic
Protocol: The effective dose for the HE50 was close to 0.65 mg/kg of body-wt./5 d, while mestranol has the same effect at a dose as low as 0.15 mg/kg of body-wt./5 d.

[3] = system: infantile female Wistar rats; experiment: Uterine activity in infantile female Wistar rats; assay type: in vivo, Wistar rat; settings: n=10
From the text: STS 593 was weaker than ethynylestradiol by a factor of 9 in its estrogenic properties as shown by the Allen-Doisy test in ovariectomized mice. The compound was only 7% as active as the standard mestranol in producing a uterine response in infantile rats (Table 3), whereas the antiestrogenic properties exceeded those of clomiphene citrate by a factor of 1.4.
Comparison of uterine activity in infantile female
Wistar rats produced by STS 593 and mestranol

[4] = determined graphically, read-out: ED 50 for IHE1
[5] = determined graphically, read-out: ED 50 for IHE2
[6] = probit analysis, read-out: ED 05 for GHE1
[7] = probit analysis, read-out: ED 05 for GHE2
[8] = probit analysis, read-out: ED 50 for GHE1
[9] = probit analysis, read-out: ED 50 for GHE2
[10] = probit analysis, read-out: ED 95 for GHE1
[11] = probit analysis, read-out: ED 95 for GHE2

CC(=O)[C@H]1CC[C@H]2[C@@H]3CCC4=CC(=O)CC[C@]4(C)[C@H]3CC[C@]12C [Progesterone, reference compound]
McPhail index (-x) (infantile rabbit uteri): 3.0

COc1ccc2c(c1)CC[C@@H]1[C@@H]2CC[C@]2(C)C(OC(=O)Nc3ccccc3)CC3C[C@@]312 (stereo partly drawn) [STS 594, 17phenylaminocarbnoyloxy-14β,15methylene-estra-1,3,5(10)-triene-3-mehylether]
Total dose for doubling uterine fresh weight [1]: 100 μg/animal

COc1ccc2c(c1)CC[C@@H]1[C@@H]2CC[C@]2(C)[C@H](O)C[C@H]3C[C@@]312 [STS 592, 3-methoxy-14β-15β-methylene-estra-1,3,5(10)-triene-17α-ol]
Separation of desirable contraceptive and undesirable estrogenic effects ([2]; mice, among the compounds of Table 6): most favorable separation | Uterine response / uterine activity (in words) [1]: distinctly weaker uterine activities | Total dose for doubling uterine fresh weight [1]: 7.0 μg/animal | THE, % after single application of 10 mg/kg of body-wt. on the 1st day of gestation p.o. (mice): 35.0%

COc1ccc2c(c1)CC[C@@H]1[C@@H]2CC[C@]2(C)[C@@H](O)C[C@@H]3C[C@]312 [STS 651, 3-methoxy-14α,15α-methylene-estra-1,3,5(10)-triene-17β-ol]
ED50 (inseminated rats; [4]): 0.107 mg/kg | ED50 (inseminated rats; [5]): 0.096 mg/kg | ED5 (inseminated rats; [6]): 0.059 mg/kg | ED5 (inseminated rats; [7]): 0.043 mg/kg | ED50 (inseminated rats; [8]): 0.183 mg/kg | ED50 (inseminated rats; [9]): 0.11 mg/kg | ED95 (inseminated rats; [10]): 0.583 mg/kg | ED95 (inseminated rats; [11]): 0.265 mg/kg | Uterine response / uterine activity (in words) [1]: strongest uterine response | Total dose for doubling uterine fresh weight [1]: 0.2 μg/animal | Contraceptive activities related to IHE1 (ranking in words) (mice): strongest contraceptive activities | THE, % after single application of 10 mg/kg of body-wt. on the 1st day of gestation p.o. (mice): 84.4%

COc1ccc2c(c1)CC[C@@H]1[C@@H]2CC[C@@]2(C)[C@@]13C[C@@H]3C[C@]2(C)O [STS 681, 3-methoxy-17α-methyl-14β,15β-methylene-estra-1,3,5(10)-triene-17β-ol]
Antifertility effects (in words) ([2]; in vivo): strong antifertility effects | Separation of desirable contraceptive and undesirable uterine and antigonadotrophic activities ([2]; in vivo): very favorable separation | Uterine response / uterine activity (in words) [1]: distinctly weaker uterine activities | Total dose for doubling uterine fresh weight [1]: 0.56 μg/animal | Contraceptive activities related to IHE1 (ranking in words) (mice): strongest contraceptive activities | THE, % after single application of 10 mg/kg of body-wt. on the 1st day of gestation p.o. (mice): 81.7%

COc1ccc2c(c1)CC[C@@H]1[C@@H]2CC[C@]2(C)C(OC(=O)Nc3ccccc3)CC3C[C@@]312 (stereo partly drawn) [STS 595, 17phenylaminocarbonyloxy-14β,15methylene-estra-1,3,5(10)-triene-3-mehylether]
Total dose for doubling uterine fresh weight [1]: 100 μg/animal

C#C[C@]1(O)CC[C@H]2[C@@H]3CCc4cc(OC)ccc4[C@H]3CC[C@@]21C [Mestranol, reference compound]
Female rats pregnant of n, normal (inseminated rats; 1st trial 1975, n=12): 1 | Female rats pregnant of n, total (inseminated rats; 1st trial 1975, n=12): 11 | GHE1 (inseminated rats; 1st trial 1975, n=12): 8.3% | GHE2 (inseminated rats; 1st trial 1975, n=12): 91.7% | IHE1 (inseminated rats; 1st trial 1975, n=12): 45.3% | IHE2 (inseminated rats; 1st trial 1975, n=12): 98.7% | Implantations per female (-x), normal (inseminated rats; 1st trial 1975, n=12): 0.2 | Implantations per female (-x), total (inseminated rats; 1st trial 1975, n=12): 6.8 | Female rats pregnant of n, normal (inseminated rats; 2nd trial 1978, n=10): 0 | Female rats pregnant of n, total (inseminated rats; 2nd trial 1978, n=10): 6 | GHE1 (inseminated rats; 2nd trial 1978, n=10): 40% | GHE2 (inseminated rats; 2nd trial 1978, n=10): 100% | IHE1 (inseminated rats; 2nd trial 1978, n=10): 70.8% | IHE2 (inseminated rats; 2nd trial 1978, n=10): 100% | Implantations per female (-x), normal (inseminated rats; 2nd trial 1978, n=10): 0 | Implantations per female (-x), total (inseminated rats; 2nd trial 1978, n=10): 3.8 | ED50 (inseminated rats; [4]): 0.17 mg/kg | ED50 (inseminated rats; [5]): 0.15 mg/kg | ED5 (inseminated rats; [6]): 0.097 mg/kg | ED5 (inseminated rats; [7]): 0.065 mg/kg | ED50 (inseminated rats; [8]): 0.34 mg/kg | ED50 (inseminated rats; [9]): 0.163 mg/kg | ED95 (inseminated rats; [10]): 1.11 mg/kg | ED95 (inseminated rats; [11]): 0.387 mg/kg | ED50 (rats (testicular mass)): 0.15 mg/kg | Uterine weight (-x) ([3]; mestranol total dose 0.6 per animal over 3 days p.o.): 70.11 mg | Uterine weight (-x) ([3]; mestranol total dose 6.0 per animal over 3 days p.o.): 95.45 mg

COc1ccc2c(c1)CC[C@@H]1[C@@H]2CC[C@]2(C)[C@H](O)C[C@@H]3C[C@]312 [STS 652, 3-methoxy-14α,15α-methylene-estra-1,3,5(10)-triene-17α-ol]
Separation of desirable contraceptive and undesirable uterine and antigonadotrophic activities ([2]; in vivo): very favorable separation | Uterine response / uterine activity (in words) [1]: distinctly weaker uterine activities | Total dose for doubling uterine fresh weight [1]: 3.0 μg/animal | THE, % after single application of 10 mg/kg of body-wt. on the 1st day of gestation p.o. (mice): 60.0%

C#C[C@]1(O)CC[C@H]2[C@@H]3CCc4cc(O)ccc4[C@H]3CC[C@@]21C [Ethynylestradiol, reference compound]
ED50 (inseminated rats; [4]): 0.37 mg/kg | ED50 (inseminated rats; [5]): < 0.21 mg/kg | ED50 (inseminated rats; [8]): ≤ 0.45 mg/kg | ED50 (inseminated rats; [9]): < 0.3 mg/kg
